Data taken from patent publication US20260250289A1, “BICYCLIC HETEROCYCLES AND THEIR USE AS WRN INHIBITORS” (Novartis AG, priority 2022, published 2026).

Tests used:
DLD1-WRN-KO cells = assay: Proliferation assay DLD1-WRN-KO (CellTiterGlo, off-target effects); format: cell-based; conditions: 96 hours, geometric mean of at least 2
In short: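 DLD1 cells with CRISPR knockout of WRN were exposed overnight-seeded to eight 3-fold compound dilutions (0.1% DMSO) for 96 h at 37 °C. Viability was read as ATP by CellTiterGlo luminescence against a day-0 plate, giving GI50 and residual viability at top concentration.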

[1] = target: T1, WRN helicase (aa N517-P1238) (Homo sapiens, UniProt Q14191); assay: WRN ATPase assay (DNA dependent ATP hydrolysis, ADP-Glo); format: biochemical; conditions: 3 hours pre-incubation, 300 micromolar ATP, FLAP26 DNA; geometric mean of at least 2
T1 construct: The core helicase motif of the WRN protein (aa N517-P1238) was produced for this assay; His (N); ZZ (N); 3C protease cleavage site (N); made in house; host or cells: Sf21 insect cells (baculovirus; virus and BIICs made in SF9)
In short: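 DNA-dependent ATP hydrolysis detected as ADP by ADP-Glo luminescence, using 300 μM ATP, 0.2 nM FLAP26 substrate and 10 nM WRN aa N517-P1238 (Tris pH 7.5 buffer, 2 mM MgCl2, 50 mM NaCl). IC50s fitted from normalized duplicate half-log dilutions; reported as geometric means of at least 2 replicates.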

SW48 cells = assay: Proliferation assay SW48 (CellTiterGlo); format: cell-based; conditions: Homo sapiens, SW48, 96 h, SW48 colon carcinoma cells, 96 hours, CellTiterGlo; geometric mean of at least 2; read-out: Proliferation Assay SW48 GI50
In short: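 Read-out is CellTiterGlo luminescence after 96 hours of compound exposure, with % growth calculated against day-0 and vehicle-treated ATP levels. SW48 seeded at 2,000 cells/well, dosed next day with eight 3-fold serial dilutions, 0.1% DMSO. GI50 reported as geometric mean, at least 2 replicates.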

T1 sequence (Q14191 517-1238): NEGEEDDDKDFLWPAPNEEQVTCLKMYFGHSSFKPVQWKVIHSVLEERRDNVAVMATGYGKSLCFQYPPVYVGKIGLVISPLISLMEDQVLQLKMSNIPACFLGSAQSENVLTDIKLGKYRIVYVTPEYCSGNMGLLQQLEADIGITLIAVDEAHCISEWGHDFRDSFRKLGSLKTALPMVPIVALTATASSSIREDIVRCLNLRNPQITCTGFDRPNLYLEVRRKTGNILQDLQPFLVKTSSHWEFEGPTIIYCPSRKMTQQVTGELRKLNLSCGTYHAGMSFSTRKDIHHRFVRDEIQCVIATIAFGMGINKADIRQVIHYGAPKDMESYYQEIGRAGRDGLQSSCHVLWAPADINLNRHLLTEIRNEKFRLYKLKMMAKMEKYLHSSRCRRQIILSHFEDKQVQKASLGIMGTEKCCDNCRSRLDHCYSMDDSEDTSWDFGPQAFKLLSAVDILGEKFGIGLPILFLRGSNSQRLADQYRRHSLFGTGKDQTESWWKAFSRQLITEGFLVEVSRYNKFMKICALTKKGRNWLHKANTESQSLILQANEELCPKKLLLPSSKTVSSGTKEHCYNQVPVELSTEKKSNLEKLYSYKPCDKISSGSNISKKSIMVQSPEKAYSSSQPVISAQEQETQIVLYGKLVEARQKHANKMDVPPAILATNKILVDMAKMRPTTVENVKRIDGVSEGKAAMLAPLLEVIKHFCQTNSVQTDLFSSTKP

| SMILES | GI50 (DLD1-WRN-KO cells) [µM] | IC50 [1] [µM] | GI50 (SW48 cells) [µM] |
| --- | --- | --- | --- |
| Cc1c(N2CCN(C(=O)c3c[nH]c(=O)cn3)CC2)c(=O)n2nc(N3CCOCC3)nc2n1CC(=O)Nc1ccc(C(F)(F)F)cc1 [Example 166, 2-(5-methyl-2-morpholino-7-oxo-6-(4-(5-oxo-4,5-dihydropyrazine-2-carbonyl)piperazin-1-yl)-[1,2,4]triazolo[1,5-a]pyrimidin-4(7H)-yl)-N-(4-(trifluoromethyl)phenyl)acetamide] | > 10 | 0.1 | > 10 |
| CC(=O)N1CCN(c2c(C)n(CC(=O)Nc3ccc(C(F)(F)F)cc3)c3nc(C4=CCOCC4)nn3c2=O)CC1C (stereo not drawn) [Example 163, 2-(6-(4-acetyl-3-methylpiperazin-1-yl)-2-(3,6-dihydro-2H-pyran-4-yl)-5-methyl-7-oxo-[1,2,4]triazolo[1,5-a]pyrimidin-4(7H)-yl)-N-(4-(trifluoromethyl)phenyl)acetamide] | > 10 | 1 | 7 |
| Cc1c(C2CCN(C(=O)c3ccc(F)c(F)c3O)CC2)c(=O)n2nc(N3CCOCC3)nc2n1CC(=O)Nc1ccc(C(F)(F)F)cc1 [Example 146, 2-(6-(1-(3,4-difluoro-2-hydroxybenzoyl)piperidin-4-yl)-5-methyl-2-morpholino-7-oxo-[1,2,4]triazolo[1,5-a]pyrimidin-4(7H)-yl)-N-(4-(trifluoromethyl)phenyl)acetamide] | > 10 | 0.09 | 4 |
| CON1CCN(c2nc3n(CC(=O)Nc4ccc(C(F)(F)F)cc4)c(C)c(N4CCN(C(C)=O)CC4)c(=O)n3n2)CC1 [Example 132, 2-(6-(4-acetylpiperazin-1-yl)-2-(4-methoxypiperazin-1-yl)-5-methyl-7-oxo-[1,2,4]triazolo[1,5-a]pyrimidin-4(7H)-yl)-N-(4-(trifluoromethyl)phenyl)acetamide] | > 10 | 2 | 10 |
| CC(=O)N1CCN(c2c(C)n(CC(=O)Nc3ccc(C(F)(F)F)cc3)c3nc(N4CCCC(F)C4)nn3c2=O)CC1 (stereo not drawn) [Example 1, 2-(6-(4-acetylpiperazin-1-yl)-2-(3-fluoropiperidin-1-yl)-5-methyl-7-oxo-[1,2,4]triazolo[1,5-a]pyrimidin-4(7H)-yl)-N-(4-(trifluoromethyl)phenyl)acetamide] | > 10 | 1 | 5 |
| CCc1ccc(NC(=O)Cn2c(C)c(N3CCN(C(C)=O)CC3)c(=O)n3nc(C4=CCOCC4)nc23)cc1Cl [Example 30, 2-(6-(4-acetylpiperazin-1-yl)-2-(3,6-dihydro-2H-pyran-4-yl)-5-methyl-7-oxo-[1,2,4]triazolo[1,5-a]pyrimidin-4(7H)-yl)-N-(3-chloro-4-ethylphenyl)acetamide] | > 10 | 0.1 | 2 |
| CCc1c(N2CCN(C(C)=O)CC2)c(=O)n2nc(C3=CCCCO3)nc2n1CC(=O)Nc1ccc(C(F)(F)F)cc1 [Example 57, 2-(6-(4-acetylpiperazin-1-yl)-2-(3,4-dihydro-2H-pyran-6-yl)-5-ethyl-7-oxo-[1,2,4]triazolo[1,5-a]pyrimidin-4(7H)-yl)-N-(4-(trifluoromethyl)phenyl)acetamide] | > 10 | 0.1 | 1 |
| CC(=O)N1CCN(c2c(C)n(CC(=O)Nc3ccc(S(F)(F)(F)(F)F)cc3)c3nc(C4=CCOCC4)nn3c2=O)CC1 [Example 78, 2-(6-(4-acetylpiperazin-1-yl)-2-(3,6-dihydro-2H-pyran-4-yl)-5-methyl-7-oxo-[1,2,4]triazolo[1,5-a]pyrimidin-4(7H)-yl)-N-(4-(pentafluoro-l6-sulfaneyl)phenyl)acetamide] | > 10 | 0.2 | 3 |
| CC(=O)N1CCN(c2c(C)n(CC(=O)Nc3ccc(C(F)(F)F)cc3)c3nc(-c4cnc(C)o4)nn3c2=O)CC1 [Example 135, 2-(6-(4-acetylpiperazin-1-yl)-5-methyl-2-(2-methyloxazol-5-yl)-7-oxo-[1,2,4]triazolo[1,5-a]pyrimidin-4(7H)-yl)-N-(4-(trifluoromethyl)phenyl)acetamide] | > 10 | 0.4 | > 10 |
| CC(=O)N1CCN(c2c(C)n(CC(=O)Nc3cc(F)c(C(F)(F)F)nc3Cl)c3nc(C4=CCOCC4)nn3c2=O)CC1 [Example 101, 2-(6-(4-acetylpiperazin-1-yl)-2-(3,6-dihydro-2H-pyran-4-yl)-5-methyl-7-oxo-[1,2,4]triazolo[1,5-a]pyrimidin-4(7H)-yl)-N-(2-chloro-5-fluoro-6-(trifluoromethyl)pyridin-3-yl)acetamide] | > 10 | 2 | 10 |
| CCc1c(C2=CCN(C(C)=O)CC2)c(=O)n2nc(C3=CCCCO3)nc2n1CC(=O)Nc1ccc(C(F)(F)F)cc1 [Example 142, 2-(6-(1-acetyl-1,2,3,6-tetrahydropyridin-4-yl)-2-(3,4-dihydro-2H-pyran-6-yl)-5-ethyl-7-oxo-[1,2,4]triazolo[1,5-a]pyrimidin-4(7H)-yl)-N-(4-(trifluoromethyl)phenyl)acetamide] | > 10 | 0.6 | 5 |
| CCc1c(N2CCN(C(=O)c3ccn4ccnc4c3O)CC2)c(=O)n2nc(C3=CCOCC3)nc2n1CC(=O)Nc1ccc(C(F)(F)F)cc1C [Example 43, 2-(2-(3,6-dihydro-2H-pyran-4-yl)-5-ethyl-6-(4-(8-hydroxyimidazo[1,2-a]pyridine-7-carbonyl)piperazin-1-yl)-7-oxo-[1,2,4]triazolo[1,5-a]pyrimidin-4(7H)-yl)-N-(2-methyl-4-(trifluoromethyl)phenyl)acetamide] | > 10 | 0.08 | 1 |
| CC(=O)N1CCN(c2c(C)n(CC(=O)Nc3ccc(C(F)(F)F)cc3)c3nc(C4=CCN(CC(F)F)CC4)nn3c2=O)CC1 [Example 119, 2-(6-(4-acetylpiperazin-1-yl)-2-(1-(2,2-difluoroethyl)-1,2,3,6-tetrahydropyridin-4-yl)-5-methyl-7-oxo-[1,2,4]triazolo[1,5-a]pyrimidin-4(7H)-yl)-N-(4-(trifluoromethyl)phenyl)acetamide] | > 10 | 0.6 | 6 |
| CCc1c(N2CCN(C(C)=O)CC2)c(=O)n2nc(C3=CCC(OC)CC3)nc2n1CC(=O)Nc1ccc(C(F)(F)F)cc1 (stereo not drawn) [Example 55, 2-(6-(4-acetylpiperazin-1-yl)-5-ethyl-2-(4-methoxycyclohex-1-en-1-yl)-7-oxo-[1,2,4]triazolo[1,5-a]pyrimidin-4(7H)-yl)-N-(4-(trifluoromethyl)phenyl)acetamide] | > 10 | 0.1 | 0.8 |
| CC(=O)N1CCN(c2c(C(C)C)n(CC(=O)Nc3ccc(C(F)(F)F)cc3)c3nc(C4=CCOCC4)nn3c2=O)CC1 [Example 162, 2-(6-(4-acetylpiperazin-1-yl)-2-(3,6-dihydro-2H-pyran-4-yl)-5-isopropyl-7-oxo-[1,2,4]triazolo[1,5-a]pyrimidin-4(7H)-yl)-N-(4-(trifluoromethyl)phenyl)acetamide] | > 10 | 0.9 | 3 |
| CC(=O)N1CCN(c2c(C)n(CC(=O)Nc3cc(F)c(C(F)(F)F)cc3Cl)c3nc(C4=CCOCC4)nn3c2=O)CC1 [Example 91, 2-(6-(4-acetylpiperazin-1-yl)-2-(3,6-dihydro-2H-pyran-4-yl)-5-methyl-7-oxo-[1,2,4]triazolo[1,5-a]pyrimidin-4(7H)-yl)-N-(2-chloro-5-fluoro-4-(trifluoromethyl)phenyl)acetamide] | > 10 | 0.7 | 3 |
| Cc1c(N2CCN(C(=O)c3ccnc(F)c3O)CC2)c(=O)n2nc(C3=CCOCC3)nc2n1CC(=O)Nc1ccc(C(F)(F)F)cc1 [Example 19, 2-(2-(3,6-dihydro-2H-pyran-4-yl)-6-(4-(2-fluoro-3-hydroxyisonicotinoyl)piperazin-1-yl)-5-methyl-7-oxo-[1,2,4]triazolo[1,5-a]pyrimidin-4(7H)-yl)-N-(4-(trifluoromethyl)phenyl)acetamide] | > 10 | 0.06 | > 10 |
| CC(=O)N1CCC(c2c(C)n(CC(=O)Nc3ccc(C(F)(F)F)cc3)c3nc(C4=CCOCC4)nn3c2=O)CC1 [Example 141, 2-(6-(1-acetylpiperidin-4-yl)-2-(3,6-dihydro-2H-pyran-4-yl)-5-methyl-7-oxo-[1,2,4]triazolo[1,5-a]pyrimidin-4(7H)-yl)-N-(4-(trifluoromethyl)phenyl)acetamide] | > 10 | 0.4 | 8 |
| Cc1c(N2CCN(C(=O)c3cc(C#N)n[nH]3)CC2)c(=O)n2nc(C3=CCOCC3)nc2n1CC(=O)Nc1ccc(C(F)(F)F)cc1 [Example 164, 2-(6-(4-(3-cyano-1H-pyrazole-5-carbonyl)piperazin-1-yl)-2-(3,6-dihydro-2H-pyran-4-yl)-5-methyl-7-oxo-[1,2,4]triazolo[1,5-a]pyrimidin-4(7H)-yl)-N-(4-(trifluoromethyl)phenyl)acetamide] | > 10 | 0.05 | > 10 |
